Source: US20190284168A1, “PYRAZOLE DERIVATIES AS SGC STIMULATORS” (IRONWOOD PHARMACEUTICALS, INC., priority 2014, published 2019)
pEC50: −log10 of the molar value. Like-named read-outs stand apart in the source and are kept apart here.

Biological target: T1, soluble guanylate cyclase (sGC) (Homo sapiens, UniProt Q02108+Q02153)
T1 construct: endogenously expressing soluble guanylate cyclase (sGC); endogenous in cells; host or cells: HEK293
T1 sequence (Q02153 1-619): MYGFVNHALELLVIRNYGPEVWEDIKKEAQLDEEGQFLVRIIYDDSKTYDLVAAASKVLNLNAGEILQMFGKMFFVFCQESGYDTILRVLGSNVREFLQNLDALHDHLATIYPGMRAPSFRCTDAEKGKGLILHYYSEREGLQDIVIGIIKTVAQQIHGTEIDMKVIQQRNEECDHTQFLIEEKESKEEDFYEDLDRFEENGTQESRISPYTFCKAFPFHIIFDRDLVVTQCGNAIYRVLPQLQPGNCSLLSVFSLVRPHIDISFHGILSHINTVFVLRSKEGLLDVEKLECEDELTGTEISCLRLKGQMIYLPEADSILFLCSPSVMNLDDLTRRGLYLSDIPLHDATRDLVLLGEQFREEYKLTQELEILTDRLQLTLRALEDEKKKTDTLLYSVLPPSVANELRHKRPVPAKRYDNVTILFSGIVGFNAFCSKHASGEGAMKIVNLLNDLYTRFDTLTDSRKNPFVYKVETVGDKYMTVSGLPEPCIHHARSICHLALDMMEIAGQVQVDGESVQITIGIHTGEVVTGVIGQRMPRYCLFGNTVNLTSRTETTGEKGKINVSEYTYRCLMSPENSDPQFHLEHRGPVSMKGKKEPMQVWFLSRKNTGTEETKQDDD
T1 sequence (Q02108 1-690): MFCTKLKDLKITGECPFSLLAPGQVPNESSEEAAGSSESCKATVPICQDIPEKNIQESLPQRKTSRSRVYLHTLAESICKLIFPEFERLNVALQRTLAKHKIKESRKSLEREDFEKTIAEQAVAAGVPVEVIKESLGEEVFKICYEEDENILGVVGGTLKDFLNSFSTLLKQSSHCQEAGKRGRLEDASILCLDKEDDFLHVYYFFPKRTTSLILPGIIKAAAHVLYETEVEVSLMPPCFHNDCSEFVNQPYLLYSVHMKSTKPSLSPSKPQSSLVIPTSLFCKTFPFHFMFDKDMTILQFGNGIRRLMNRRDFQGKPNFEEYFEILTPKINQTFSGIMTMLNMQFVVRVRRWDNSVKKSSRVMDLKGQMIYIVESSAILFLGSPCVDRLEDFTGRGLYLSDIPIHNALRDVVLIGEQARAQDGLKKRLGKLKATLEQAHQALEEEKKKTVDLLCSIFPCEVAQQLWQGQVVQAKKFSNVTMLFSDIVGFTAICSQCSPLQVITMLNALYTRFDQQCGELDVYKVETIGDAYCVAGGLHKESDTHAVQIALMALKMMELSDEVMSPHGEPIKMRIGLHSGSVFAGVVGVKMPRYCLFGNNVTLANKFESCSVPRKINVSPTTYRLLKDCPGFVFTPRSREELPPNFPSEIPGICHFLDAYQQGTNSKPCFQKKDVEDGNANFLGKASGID
Assay: sGC-HEK-cGMP assay with LC/MS detection
Type: cell-based
Settings: for EC50: HEK293 whole cells, LC/MS detection of cGMP, 10 μM DETA-NONOate, 50% of high control response (30 μM Compound Y), read-out: Absolute EC50 (nM)- binned (~)

| EC50 | Compound | pEC50 |
| --- | --- | --- |
| > 1000 nM | O=c1n(-c2nc(-c3cc(-c4ccon4)n(Cc4ccccc4F)n3)ncc2F)nc2n1CCNC2 [Compound 43] |  |
| 100 to 1000 nM | CCOC(=O)CCNc1nc(-c2cc(-c3ccon3)n(Cc3ccccc3F)n2)ncc1F [Compound 165, ethyl 3-((5-fluoro-2-(1-(2-fluorobenzyl)-5-(isoxazol-3-yl)-1H-pyrazol-3-yl)pyrimidin-4-yl)amino)propanoate] |  |
| 100 to 1000 nM | CC(=O)c1cc(-c2ncc(F)c(NCC(O)(C(N)=O)C(F)(F)F)n2)nn1Cc1ccccc1F (stereo not drawn) [Compound 85] |  |
| > 1000 nM | CN(C)c1cc(-c2ncc(F)c(O)n2)nn1Cc1ccccc1F [Compound 81] |  |
| > 1000 nM | CC(=O)c1cc(-c2ncc(F)c(N(C)C[C@@H](C(=O)O)C(C)C)n2)nn1Cc1ccccc1F [Compound 73] |  |
| 100 to 1000 nM | CC(=O)c1cc(-c2ncc(F)c(N3CCCCC3)n2)nn1Cc1ccccc1F [Compound 93] |  |
| 100 to 1000 nM | CC(=O)c1cc(-c2ncc(F)c(N3CCC(C(=O)O)(C(C)C)CC3)n2)nn1Cc1ccccc1F [Compound 179] |  |
| > 1000 nM | OCC(O)CNc1cnc(-c2cc(-c3ccon3)n(Cc3ccccc3F)n2)nc1 (stereo not drawn) [Compound 21] |  |
| > 1000 nM | C[C@H]1CCCN(c2nc(-c3cc(-c4ccon4)n(Cc4ccccc4F)n3)ncc2F)[C@H]1C(=O)OCCN1CCOCC1 [Compound 157, (2R,3S)-2-morpholinoethyl 1-(5-fluoro-2-(1-(2-fluorobenzyl)-5-(isoxazol-3-yl)-1H-pyrazol-3-yl)pyrimidin-4-yl)-3-methylpiperidine-2-carboxylate] |  |
| > 1000 nM | Oc1cccc(F)c1Cn1nc(-c2ncc(F)c(NCC(O)(C(F)(F)F)C(F)(F)F)n2)cc1-c1ccon1 [Compound 183] |  |
| > 1000 nM | NC(=O)Cc1cn(-c2nc(-c3cc(-c4ccon4)n(Cc4ccccc4F)n3)ncc2F)[nH]c1=O [Compound 41] |  |
| 100 to 1000 nM | O=C(CCNc1nc(-c2cc(-c3ccon3)n(Cc3ccccc3F)n2)ncc1F)OCCN1CCOCC1 [Compound 162, 2-morpholinoethyl 3-((5-fluoro-2-(1-(2-fluorobenzyl)-5-(isoxazol-3-yl)-1H-pyrazol-3-yl)pyrimidin-4-yl)amino)propanoate] |  |
| 100 to 1000 nM | CC(=O)c1cc(-c2ncc(F)c(N3CC[C@H](O)[C@H](O)C3)n2)nn1Cc1ccccc1F [Compound 116] |  |
| 100 to 1000 nM | CC(=O)c1cc(-c2ncc(F)c(N(C)CC3(C(N)=O)CC3)n2)nn1Cc1ccccc1F [Compound 99] |  |
| 100 to 1000 nM | CC(=O)c1cc(-c2ncc(F)c(N3CCC(S(N)(=O)=O)CC3)n2)nn1Cc1ccccc1F [Compound 88] |  |
| > 30000 nM | Nc1ccc(CNc2nc(-c3cc(-c4ccon4)n(Cc4ccccc4F)n3)ncc2F)cc1O [Compound 159, 2-amino-5-(((5-fluoro-2-(1-(2-fluorobenzyl)-5-(isoxazol-3-yl)-1H-pyrazol-3-yl)pyrimidin-4-yl)amino)methyl)phenol] |  |
| > 30000 nM | COc1nn(-c2nc(-c3cc(-c4ccon4)n(Cc4ccccc4F)n3)ncc2F)cc1CC(N)=O [Compound 57] |  |
| 100 to 1000 nM | NC1(CNc2nc(-c3cc(-c4ccon4)n(Cc4ccccc4F)n3)ncc2F)CC1 [Compound 68] |  |
| < 100 nM | OC(CNc1nc(-c2cc(-c3ccon3)n(Cc3ccccc3F)n2)ncc1F)(c1nnc(C2CC2)o1)C(F)(F)F (stereo not drawn) [Compound 69, 2-(5-cyclopropyl-1,3,4-oxadiazol-2-yl)-1,1,1-trifluoro-3-((5-fluoro-2-(1-(2-fluorobenzyl)-5-(isoxazol-3-yl)-1H-pyrazol-3-yl)pyrimidin-4-yl)amino)propan-2-ol] |  |
| 100 to 1000 nM | CC(=O)c1cc(-c2ncc(F)c(N3CCCC(F)(F)C3)n2)nn1Cc1ccccc1F [Compound 79] |  |
| 100 to 1000 nM | CC(=O)c1cc(-c2ncc(F)c(N3CCNC(C(F)(F)F)C3)n2)nn1Cc1ccccc1F (stereo not drawn) [Compound 71] |  |
| < 100 nM | CC(C)OC(=O)CCNc1nc(-c2cc(-c3ccon3)n(Cc3ccccc3F)n2)ncc1F [Compound 164, isopropyl 3-((5-fluoro-2-(1-(2-fluorobenzyl)-5-(isoxazol-3-yl)-1H-pyrazol-3-yl)pyrimidin-4-yl)amino)propanoate] |  |
| > 1000 nM | CCOC(=O)C(C)(C)C(=O)Nc1ccnc(-c2cc(-c3ccon3)n(Cc3ccccc3F)n2)n1 [Compound 66] |  |

| EC50 | Compound | pEC50 |
| --- | --- | --- |
| 100 to 1000 nM | CC(=O)c1cc(-c2ncc(F)c(NCCS(N)(=O)=O)n2)nn1Cc1ccccc1F [Compound 76] |  |
|  | Oc1cc(CNc2nc(-c3cc(-c4ccon4)n(Cc4ccccc4F)n3)ncc2F)on1 [Compound 28] | > 7.00 |
| > 1000 nM | CC(C)(NC(=O)OCc1ccccc1)C(=O)Nc1ccnc(-c2cc(-c3ccon3)n(Cc3ccccc3F)n2)n1 [Compound 5] |  |
| 100 to 1000 nM | Nc1nnc(C(O)(CNc2nc(-c3cc(-c4ccon4)n(Cc4ccccc4F)n3)ncc2F)C(F)(F)F)o1 (stereo not drawn) [Compound 42] |  |
| 100 to 1000 nM | CCC(C)(N)CNc1nc(-c2cc(-c3ccon3)n(Cc3ccccc3F)n2)ncc1F (stereo not drawn) [Compound 55] |  |
| > 1000 nM | CC(=O)c1cc(-c2ncc(F)c(N3CCS(=O)(=O)C(C)(C)C3)n2)nn1Cc1ccccc1F [Compound 115] |  |
| < 100 nM | NC(=O)C(F)(F)CNc1nc(-c2cc(-c3ccon3)n(Cc3ccccc3F)n2)ncc1F [Compound 15] |  |
| < 100 nM | CC(=O)c1cc(-c2ncc(F)c(N(C)CC3(C(=O)O)CCCC3)n2)nn1Cc1ccccc1F [Compound 90] |  |
| 100 to 1000 nM | NCC(=O)OCCNc1nc(-c2cc(-c3ccon3)n(Cc3ccccc3F)n2)ncc1F [Compound 199] |  |
| > 30000 nM | CS(=O)(=O)c1cc(-c2ncc(F)c(O)n2)nn1Cc1ccccc1F [Compound 196] |  |
| > 1000 nM | NCCNc1cnc(-c2cc(-c3ccon3)n(Cc3ccccc3F)n2)nc1 [Compound 9] |  |
| 100 to 1000 nM | CC(=O)c1cc(-c2ncc(F)c(NS(=O)(=O)CCC(F)(F)F)n2)nn1Cc1ccccc1F [Compound 96] |  |
| > 1000 nM | Nc1nc(-c2cc(-c3ccon3)n(Cc3ccccc3F)n2)ncc1NCCO [Compound 10] |  |
| 100 to 1000 nM | C[C@](CNc1nc(-c2cc(-c3ccon3)n(Cc3ccccc3F)n2)ncc1F)(NC(CO)c1ccccc1)C(F)(F)F (stereo partly drawn) [Compound 131, 2-phenyl-2-(((R)-1,1,1-trifluoro-3-((5-fluoro-2-(1-(2-fluorobenzyl)-5-(isoxazol-3-yl)-1H-pyrazol-3-yl)pyrimidin-4-yl)amino)-2-methylpropan-2-yl)amino)ethanol] |  |
| > 30000 nM | Fc1ccccc1Cn1nc(-c2ncc(F)c(Nc3nnc(C(F)(F)F)[nH]3)n2)cc1-c1ccon1 [Compound 12] |  |
| 100 to 1000 nM | CC(C)(C(N)=O)C(=O)Nc1ccnc(-c2cc(-c3ccon3)n(Cc3ccccc3F)n2)n1 [Compound 51] |  |
| 100 to 1000 nM | CC(C)CC(C)(N)CNc1nc(-c2cc(-c3ccon3)n(Cc3ccccc3F)n2)ncc1F (stereo not drawn) [Compound 156, N1-(5-fluoro-2-(1-(2-fluorobenzyl)-5-(isoxazol-3-yl)-1H-pyrazol-3-yl)pyrimidin-4-yl)-2,4-dimethylpentane-1,2-diamine] |  |
| 100 to 1000 nM | CC(=O)c1cc(-c2ncc(F)c(NCCCCC(=O)O)n2)nn1Cc1ccccc1F [Compound 87] |  |
| 100 to 1000 nM | CS(=O)(=O)NCCNc1cnc(-c2cc(-c3ccon3)n(Cc3ccccc3F)n2)nc1 [Compound 24] |  |
| 100 to 1000 nM | C[C@@](CNc1nc(-c2cc(-c3ccon3)n(Cc3ccccc3F)n2)ncc1F)(NC(CO)c1ccccc1)C(F)(F)F (stereo partly drawn) [Compound 130, 2-phenyl-2-(((S)-1,1,1-trifluoro-3-((5-fluoro-2-(1-(2-fluorobenzyl)-5-(isoxazol-3-yl)-1H-pyrazol-3-yl)pyrimidin-4-yl)amino)-2-methylpropan-2-yl)amino)ethanol] |  |
| > 1000 nM | C=CCN(C)c1nc(-c2cc(-c3ccon3)n(Cc3ccccc3F)n2)ncc1F [Compound 166, N-allyl-5-fluoro-2-(1-(2-fluorobenzyl)-5-(isoxazol-3-yl)-1H-pyrazol-3-yl)-N-methylpyrimidin-4-amine] |  |
| 100 to 1000 nM | CC(C)C(C)(N)CNc1nc(-c2cc(-c3ccon3)n(Cc3ccccc3F)n2)ncc1F (stereo not drawn) [Compound 154, N1-(5-fluoro-2-(1-(2-fluorobenzyl)-5-(isoxazol-3-yl)-1H-pyrazol-3-yl)pyrimidin-4-yl)-2,3-dimethylbutane-1,2-diamine] |  |
